The record followed here is patent publication US9815796B2 (Merck Sharp & Dohme Corp., priority 2013, dated 2017).

In the assay the target is Rhesus PDE2A3 (Macaca mulatta, UniProt B3VTJ2). The experiment in a line: PDE2 fluorescence polarization (IMAP FP) inhibition assay, rhesus enzyme. Format: biochemical, rhesus macaque. On the procedure:
The activity of the compounds in accordance with the present invention as PDE2 inhibitors may be readily determined using a fluorescence polarization (FP) methodology (Huang, W., et al., J. Biomol Screen, 2002, 7: 215).
In a typical experiment the PDE2 inhibitory activity of the compounds of the present invention was determined in accordance with the following experimental method. Rhesus PDE2A3 was amplified from rhesus macaque brain cDNA (Biochain Institute, Hayward, Calif.) using primers based on human PDE2A sequence (accession NM_002599.3) where the forward primer containing a Kozak consensus was 5′-[…]-3′ and the reverse primer was 5′-[…]-3′. Amplification with Easy-A High-Fidelity PCR cloning enzyme (Stratagene, La Jolla, Calif.) was 95° C. for 2 minutes followed by thirty three cycles of 95° C. for 40 seconds, 52° C. for 30 seconds, and 72° C. for 2 minutes 48 seconds. Final extension was 72° C. for 7 minutes. The PCR product was TA cloned into pcDNA3.3-TOPO (Invitrogen, Carlsbad, Calif.) according to standard protocol. A consensus sequence was developed from multiple clones and then deposited into GenBank (EU812167). AD293 cells (Stratagene, La Jolla, Calif.) with 70-80% confluency were transiently transfected with rhesus PDE2A3/pcDNA3.3-TOPO using Lipofectamine 2000 according to manufacturer specifications (Invitrogen, Carlsbad, Calif.). Cells were harvested 48 hours post-transfection and lysed by sonication (setting 3, 10×5 sec pulses) in a buffer containing 20 mM HEPES pH 7.4, 1 mM EDTA and Complete Protease Inhibitor Cocktail Tablets (Roche, Indianapolis, Ind.). Lysate was collected by centrifugation at 75,000×g for 20 minutes at 4° C. and supernatant utilized for evaluation of PDE2 activity. The fluorescence polarization assay for cyclic nucleotide phosphodiesterases was performed using an IMAP® FP kit supplied by Molecular Devices, Sunnyvale, Calif. (product # R8139). […] Assays were performed at room temperature in 384-well microtiter plates with an incubation volume of 20.2 μL. Solutions of test compounds were prepared in DMSO and serially diluted with DMSO to yield 8 μL of each of 10 solutions differing by 3-fold in concentration, at 32 serial dilutions per plate. […] 0% of inhibition is determined by using DMSO (1% final concentrations).
A Labcyte Echo 555 (Labcyte, Sunnyvale, Calif.) is used to dispense 200 nL from each well of the titration plate to the 384 well assay plate. Ten microliters of a solution of enzyme (1/2000 final dilution from aliquots; sufficient to produce 20% substrate conversion) was added to the assay plate. Next 10 uL of a separate solution of the substrate FAM-labeled cAMP (50 nM final concentration product # R7506 from Molecular Devices) and the activator cGMP (1 uM final concentration), prepared in the assay buffer (10 mM Tris HCl, pH 7.2, 10 mM MgCl2, 0.05% NaN3 0.01% Tween-20, and 1 mM DTT) was added to the assay plate and shaken to mix. The reaction is allowed to proceed at room temperature for 60 minutes. A binding solution is then made from the kit components, comprised of 80% Solution A, 20% Solution B and binding reagent at a volume of 1/600 the total binding solution. The enzymatic reaction is stopped by addition of 60 μL of the binding solution to each well of the assay plates and the plates are sealed and shaken for 30 seconds. The plate was incubated at room temperature for at least one hour prior to determining the fluorescence polarization (FP). The parallel and perpendicular fluorescence of each well of the plate was measured using a Tecan Genios Pro plate reader (Tecan, Switzerland) or Perkin Elmer EnVision™ plate reader (Waltham, Mass.). Fluorescence polarization (mP) was calculated from the parallel (S) and perpendicular (P) fluorescence of each sample well and the analogous values for the median control well, containing only substrate (So and Po), using the following equation: Polarization (mP)=1000*(S/So−P/Po)/(S/So+P/Po).

The mark [1] stands for this setting: Rhesus PDE2, Lab B, read-out: Rhesus PDE2 Ki (nM) - Lab B.
Where [2] appears, read: Rhesus PDE2, Lab A, read-out: Rhesus PDE2 Ki (nM) - Lab A.

Like-named read-outs stand apart in the source and are kept apart here.

Chain of Rhesus PDE2A3 (B3VTJ2 1-941): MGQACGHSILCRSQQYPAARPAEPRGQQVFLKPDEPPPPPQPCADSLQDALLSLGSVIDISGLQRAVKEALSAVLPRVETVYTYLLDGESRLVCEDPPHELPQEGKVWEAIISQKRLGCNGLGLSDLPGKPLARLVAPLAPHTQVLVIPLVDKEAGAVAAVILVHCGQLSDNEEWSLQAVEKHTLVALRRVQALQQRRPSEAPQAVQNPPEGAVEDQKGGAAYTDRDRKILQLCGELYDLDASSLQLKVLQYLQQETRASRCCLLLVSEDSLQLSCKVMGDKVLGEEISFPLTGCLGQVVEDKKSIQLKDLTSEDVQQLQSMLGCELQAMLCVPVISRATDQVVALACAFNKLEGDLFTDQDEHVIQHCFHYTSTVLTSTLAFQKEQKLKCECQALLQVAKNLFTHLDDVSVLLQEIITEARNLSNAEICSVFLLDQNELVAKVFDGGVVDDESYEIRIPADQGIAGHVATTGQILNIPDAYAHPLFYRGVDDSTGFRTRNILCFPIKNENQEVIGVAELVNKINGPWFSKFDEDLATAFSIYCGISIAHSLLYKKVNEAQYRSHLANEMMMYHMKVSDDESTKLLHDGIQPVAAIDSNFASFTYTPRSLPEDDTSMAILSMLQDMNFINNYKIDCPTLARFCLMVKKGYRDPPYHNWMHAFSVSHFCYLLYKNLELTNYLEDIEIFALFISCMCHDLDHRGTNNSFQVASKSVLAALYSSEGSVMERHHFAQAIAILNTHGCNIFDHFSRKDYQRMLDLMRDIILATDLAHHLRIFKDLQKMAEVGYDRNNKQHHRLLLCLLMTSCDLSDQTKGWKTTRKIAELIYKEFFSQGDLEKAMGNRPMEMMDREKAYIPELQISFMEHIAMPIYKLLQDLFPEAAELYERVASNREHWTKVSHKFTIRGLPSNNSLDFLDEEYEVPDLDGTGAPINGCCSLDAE

`CC(NC(=O)c1cc(=O)[nH]c(-c2ccccc2)n1)c1ccc(O)cc1` (stereo not shown) [Example 369, N-[1-(4-hydroxyphenyl)ethyl]-6-oxo-2-phenyl-1,6-dihydropyrimidine-4-carboxamide]: under setting [1], the Ki was 8780 nM.

On to `O=C(NCc1c(Cl)cc(C(F)(F)F)cc1Cl)c1cc(=O)[nH]c(-c2ccccc2)n1` [Example 156], for which the “Rhesus PDE2 % inh. at 1 uM - Lab A” value (Rhesus PDE2, Lab A, at 1 uM) turned out to be 9 % inh. The inhibition constant (Ki) under setting [2] is over 1000 nM.

As for `CC(C)[C@@H](NC(=O)c1cc(=O)[nH]c(-c2ncccn2)n1)c1ccc(SC(F)(F)F)cc1` [Example 97, N-[(1R)-2-methyl-1-{4-[(trifluoromethyl)sulfanyl]phenyl}propyl]-6-oxo-1,6-dihydro-2,2′-bipyrimidine-4-carboxamide], the inhibition constant Ki under setting [2] was found to be 1.5 nM. On the same count and under the same terms, under `C[C@@H](NC(=O)c1cc(=O)[nH]c(-c2ccccc2)n1)c1ccc(CN(C)C)cc1` [Example 365, N-[(1R)-1-{4-[(dimethylamino)methyl]phenyl}ethyl]-6-oxo-2-phenyl-1,6-dihydropyrimidine-4-carboxamide] stands 6850 nM.

For `CC(NC(=O)c1cc(=O)[nH]c(-c2ccccc2)n1)c1ccc(S(C)(=O)=O)cc1` (stereo not shown) [Example 382, N-{1-[4-(methylsulfonyl)phenyl]ethyl}-6-oxo-2-phenyl-1,6-dihydropyrimidine-4-carboxamide], the Ki under setting [1] amounted to 3120 nM. Turning to `O=C(NCc1ccc(C2CC2)cc1)c1cc(=O)[nH]c(C2CC2)n1` [Example 221, 2-cyclopropyl-N-(4-cyclopropylbenzyl)-6-oxo-1,6-dihydropyrimidine-4-carboxamide], under setting [2], the Ki came out at 681 nM.

Turning to `CC(NC(=O)c1cc(=O)[nH]c(-c2ncccn2)n1)c1ccc(C(F)(F)F)cc1Cl` (stereo not shown) [Example 96, N-{1-[2-chloro-4-(trifluoromethyl)phenyl]ethyl}-6-oxo-1,6-dihydro-2,2′-bipyrimidine-4-carboxamide], the Ki under setting [2] stood at 1280 nM. Regarding `O=C(N[C@@H](c1ccc(C(F)(F)F)cc1)C1CC1)c1cc(=O)[nH]c(-c2ncccn2)n1` [Example 94, N-{(R)-cyclopropyl[4-(trifluoromethyl)phenyl]methyl}-6-oxo-1,6-dihydro-2,2′-bipyrimidine-4-carboxamide], the Ki under setting [2] is 20 nM.

Take `CC(C)c1ccc(CNC(=O)c2cc(=O)[nH]c(-c3ccccc3)n2)cc1` [Example 414, N-[4-(1-methylethyl)benzyl]-6-oxo-2-phenyl-1,6-dihydropyrimidine-4-carboxamide]: the Ki under setting [1] came out at 136 nM. As for `C[C@@H](NC(=O)c1cc(=O)[nH]c(-c2ccccc2)n1)c1cccc2ccccc12` [Example 354, N-[(1R)-1-naphthalen-1-ylethyl]-6-oxo-2-phenyl-1,6-dihydropyrimidine-4-carboxamide], the “Rhesus PDE2 % inh. at 1 uM - Lab A” value (Rhesus PDE2, Lab A, at 1 uM) worked out at 42 % inh. Also, the Ki reads like this: under setting [2], over 1000 nM; under setting [1], 2800 nM.

Consider `C[C@@H](NC(=O)c1cc(=O)[nH]c(-c2ccccc2)n1)c1cccc(C(F)(F)F)c1` [Example 168, 6-oxo-2-phenyl-N-{(1R)-1-[3-(trifluoromethyl)phenyl]ethyl}-1,6-dihydropyrimidine-4-carboxamide], for which the Ki under setting [2] was found to be 467 nM. The same measure, in the same setting: under `Cc1nc(C(=O)NCc2ccc(C(F)(F)F)cc2Cl)cc(=O)[nH]1` [Example 24, N-[2-chloro-4-(trifluoromethyl)benzyl]-2-methyl-6-oxo-1,6-dihydropyrimidine-4-carboxamide] stands 3630 nM. Take `CCOC(=O)c1ccc([C@@H](C)NC(=O)c2cc(=O)[nH]c(-c3ncccn3)n2)cc1` [Example 432, ethyl 4-[(1R)-1-{[(6-oxo-1,6-dihydro-2,2′-bipyrimidin-4-yl)carbonyl]amino}ethyl]benzoate]: the inhibitory constant (Ki) under setting [1] is over 2970 nM.

For the molecule `CC(C)(NC(=O)c1cc(=O)[nH]c(-c2ccccc2)n1)c1ccc(F)c(F)c1` [Example 344, N-[1-(3,4-difluorophenyl)-1-methylethyl]-6-oxo-2-phenyl-1,6-dihydropyrimidine-4-carboxamide], the inhibitory constant (Ki) under setting [2] was about 449 nM and the Ki under setting [1] was 681 nM.

Turning to `Cc1nc(C(=O)NCc2ccc(C(F)(F)F)cc2C)cc(=O)[nH]1` [Example 23, 2-methyl-N-[2-methyl-4-(trifluoromethyl)benzyl]-6-oxo-1,6-dihydropyrimidine-4-carboxamide], the inhibition constant Ki under setting [2] stood at 3920 nM. Same read-out and setting: as for `Cc1nc(C(=O)NC(c2ccc(F)cc2)c2ccc(C(F)(F)F)cc2)cc(=O)[nH]1` (stereo not shown) [Example 130, N-{(4-fluorophenyl)[4-(trifluoromethyl)phenyl]methyl}-2-methyl-6-oxo-1,6-dihydropyrimidine-4-carboxamide], the figure is 715 nM. For `Cc1nc(C(=O)NC(c2ccc(SC(F)(F)F)c(F)c2)C2(C)CC2)cc(=O)[nH]1` (single isomer, unassigned) [Example 703, (S)- or (R)-N-((3-fluoro-4-((trifluoromethyl)thio)phenyl)(1-methylcyclopropyl)methyl)-2-methyl-6-oxo-1,6-dihydropyrimidine-4-carboxamide], the inhibition constant (Ki) under setting [1] is over 2970 nM. `Cc1nc(C(=O)NC(C)c2ccc(C(C)C)cc2)cc(=O)[nH]1` (single isomer, unassigned) [Example 306, (S)- or (R)-2-methyl-N-{1-[4-(1-methylethyl)phenyl]ethyl}-6-oxo-1,6-dihydropyrimidine-4-carboxamide]: under setting [2], the Ki was determined as 2380 nM.

Take `CC(NC(=O)c1cc(=O)[nH]c(C2CC2)n1)c1ncc(C(F)(F)F)cn1` (stereo not shown) [Example 203, 2-cyclopropyl-6-oxo-N-{1-[5-(trifluoromethyl)pyrimidin-2-yl]ethyl}-1,6-dihydropyrimidine-4-carboxamide]: the Ki under setting [2] worked out at 4320 nM. Turning to `CC(C)(C)c1ccc(CCNC(=O)c2cc(=O)[nH]c(-c3ccccc3)n2)cc1` [Example 375, N-[2-(4-tert-butylphenyl)ethyl]-6-oxo-2-phenyl-1,6-dihydropyrimidine-4-carboxamide], the inhibition at 1 µM (Rhesus PDE2, Lab A, at 1 uM, read-out: Rhesus PDE2 % inh. at 1 uM - Lab A) was found to be 46%. Moreover, the Ki under setting [2] worked out at 1000 nM and the inhibitory constant (Ki) under setting [1] stood at 2040 nM. With `CC(NC(=O)c1cc(=O)[nH]c(-c2ncccn2)n1)c1ncc(C(F)(F)F)cn1` (stereo not shown) [Example 105, 6-oxo-N-{1-[5-(trifluoromethyl)pyrimidin-2-yl]ethyl}-1,6-dihydro-2,2′-bipyrimidine-4-carboxamide], under setting [2], the inhibition constant Ki was found to be 3470 nM. Turning to `CC(NC(=O)c1cc(=O)[nH]c(-c2ccccc2)n1)c1ccncc1` (stereo not shown) [Example 358, 6-oxo-2-phenyl-N-(1-pyridin-4-ylethyl)-1,6-dihydropyrimidine-4-carboxamide], under setting [2], the Ki is 11600 nM.

Consider `C[C@H](O)[C@@H](NC(=O)c1cc(=O)[nH]c(C2CC2)n1)c1ccc(C(F)(F)F)cc1` [Example 442, 2-cyclopropyl-N-{(1S,2S)-2-hydroxy-1-[4-(trifluoromethyl)phenyl]propyl}-6-oxo-1,6-dihydropyrimidine-4-carboxamide], for which the Ki under setting [1] is over 2970 nM. In the case of `CC(NC(=O)c1cc(=O)[nH]c(-c2ccccc2)n1)c1cccc(C(F)(F)F)c1` (stereo not shown) [Example 395, 6-oxo-2-phenyl-N-{1-[3-(trifluoromethyl)phenyl]ethyl}-1,6-dihydropyrimidine-4-carboxamide], the inhibitory constant (Ki) under setting [1] was determined as 2050 nM. With `Cc1nc(C(=O)N[C@H](C)c2ccc(-c3ccc(C(F)(F)F)nc3)cc2)cc(=O)[nH]1` [Example 321, 2-methyl-6-oxo-N-[(1R)-1-{4-[6-(trifluoromethyl)pyridin-3-yl]phenyl}ethyl]-1,6-dihydropyrimidine-4-carboxamide], the Ki under setting [2] was 911 nM.
